According to patent EP0432442A1, “ACAT inhibitors” (priority 1989, dated 1991):

Columns and labels:
[1] = target: acyl-CoA: cholesterol acyltransferase (ACAT); assay: in vitro ACAT inhibition: formation of radiolabeled cholesterol oleate from radiolabeled oleic acid in rabbit intestinal microsomes; assay type: biochemical; conditions: tissue preparation containing rabbit intestinal microsomes
Method: The ability of representative compounds of the present invention to inhibit ACAT was measured using an in vitro test more fully described in F. J. Field and R. G. Salone, Biochemica et Biophysica 712:557-570 (1982). The test assesses the ability of a test compound to inhibit the acylation of cholesterol by oleic acid by measuring the amount of radiolabeled cholesterol oleate formed from radiolabeled oleic acid in a tissue preparation containing rabbit intestinal microsomes.
The data appear in Table 1 where they are expressed in IC50 values; i.e., the concentration of test compound required to inhibit 50% […] of the enzyme.

[2] = test system: male Sprague-Dawley rats; assay: in vivo screen designated APCC: blood cholesterol in rats fed the PCC diet; conditions: blood cholesterol vs vehicle (CMC/Tween); dosed at 4 PM, PCC diet with 1% or 0.5% cholic acid overnight, sacrificed at 8 AM; dose not given
Text: In one in vivo screen designated APCC. male Sprague-Dawley rats (200 to 225 g) were randomly divided into treatment groups and dosed at 4 PM with either vehicle (CMCTween) or suspensions of compounds in vehicle. The normal chow diet was then replaced with the PCC diet with either 1% or 0.5^00 cholic acid, as indicated. The rats consumed this diet ad libitum during the night and were sacrificed at 8 AM to obtain blood samples for cholesterol analysis using standard procedures. Statistical differences between mean cholesterol values for the same vehicle were determined using analysis of variance followed by Fisher's least significant test.

| SMILES | IC50 [1] [µM] | % Change (mg/dl) [2] [%] |
| --- | --- | --- |
| CC(C)c1cccc(C(C)C)c1NC(=O)NCC(NC(=O)c1ccccc1)c1ccccc1 (racemic) [Example 4, (±)-N-[2-[[[[2,6-bis(1-methylethyl)phenyl]amino]carbonyl]amino]-1-phenylethyl]benzenecarboxamide] | 0.53 |  |
| CC(C)c1cccc(C(C)C)c1NC(=O)NCC(NCc1ccccc1)c1ccccc1 (racemic) [Example 5, (±)-N-(2,6-bis(1-methylethyl)phenyl]-N'-[2-phenylmethylamino)-2-phenylethyl]urea] | 0.051 | -53 |
| CCCCCCC(=O)NC(CNC(=O)Nc1c(C(C)C)cccc1C(C)C)c1ccccc1 (racemic) [Example 7, (±)-N-[2-[[[[2,6-bis(1-methylethyl)phenyl]amino]carbonyl]amino]-1-phenylethyl]heptanamide] | 0.15 |  |
| CCCCCCCNC(CNC(=O)Nc1c(C(C)C)cccc1C(C)C)c1ccccc1 (racemic) [Example 8, (±)-N-[2,6-bis(1-methylethyl)phenyl]-N'-[2-heptylamino-2-phenylethyl]urea] | 0.11 | -25 |
| CC(C)c1cccc(C(C)C)c1NC(=O)NCC(NC(=O)CCCCCBr)c1ccccc1 (racemic) [Example 9, (±)-N-[2-[[[[2,6-bis(1-methylethy))phenyl]amino]carbonyl]amino]-1-phenylethyl]-6-bromohexanamide] | 0.38 | -36 |
| COCCCCCC(=O)NC(CNC(=O)Nc1c(C(C)C)cccc1C(C)C)c1ccccc1 (racemic) [Example 10, (±)-N-[2-[[[[2,6-bis(1-methylethyl)phenyl]amino]carbonyl]amino]-1-phenylethyl]-6-methoxyhexanamide] | 0.39 |  |
| CCCCCCCCCCCCNCC(CNC(=O)Nc1c(C(C)C)cccc1C(C)C)c1ccccc1 (racemic) [Example 11, (±)-N-[2,6-bis(1-methylethyl)phenyl]-N'-[3-dodecylamino-2-phenylpropyl]urea] |  | -54 |
| CC(C)c1cccc(C(C)C)c1NC(=O)NCC(NC(=O)c1ccccn1)c1ccccc1 (racemic) [Example 12, (±)-N-[2-[[[[2,6-bis(1-methylethyl)phenyl]amino]carbonyl]amino]-1-phenethyl-2-pyridinylarnide] | 0.08 |  |
